Reference: publication PMC3961306, “Comparison of the Cancer Gene Targeting and Biochemical Selectivities of All Targeted Kinase Inhibitors Approved for Clinical Use” (PLoS ONE, 2014)

Columns and labels:
Test in all cases: Kinase profiling in a biochemical assay panel (mobility shift assays and ELISA), %-inhibition at 1 μM; selectivity entropy
[1] = molecular target: T1, panel of more than 300 wild-type and mutant kinases (313 kinase panel) (Homo sapiens, UniProt Q13163)
T1 sequence (Q13163 1-448): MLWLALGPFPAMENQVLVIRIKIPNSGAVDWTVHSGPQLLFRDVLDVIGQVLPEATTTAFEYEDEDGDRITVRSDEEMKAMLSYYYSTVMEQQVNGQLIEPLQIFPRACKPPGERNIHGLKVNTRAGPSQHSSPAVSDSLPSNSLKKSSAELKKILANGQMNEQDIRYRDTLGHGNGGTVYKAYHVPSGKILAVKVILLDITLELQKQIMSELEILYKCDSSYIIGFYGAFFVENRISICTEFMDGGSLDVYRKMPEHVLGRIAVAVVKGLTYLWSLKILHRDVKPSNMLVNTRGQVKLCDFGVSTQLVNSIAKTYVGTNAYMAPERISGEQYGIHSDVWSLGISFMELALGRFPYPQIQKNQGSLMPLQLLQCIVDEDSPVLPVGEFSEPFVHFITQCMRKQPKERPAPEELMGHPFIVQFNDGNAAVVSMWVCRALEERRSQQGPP

[2] = molecular target: panel of more than 300 wild-type and mutant kinases (313 kinase panel) (Homo sapiens, UniProt Q02763)
[3] = molecular target: panel of more than 300 wild-type and mutant kinases (313 kinase panel) (Homo sapiens, UniProt P51617)
[4] = molecular target: panel of more than 300 wild-type and mutant kinases (313 kinase panel) (Homo sapiens, UniProt P23443)
[5] = molecular target: panel of more than 300 wild-type and mutant kinases (313 kinase panel) (Homo sapiens, UniProt Q9BYP7)
[6] = molecular target: panel of more than 300 wild-type and mutant kinases (313 kinase panel) (Homo sapiens, UniProt P07949)
[7] = molecular target: T2, panel of more than 300 wild-type and mutant kinases (313 kinase panel) (Homo sapiens, UniProt Q9UHD2)
T2 sequence (Q9UHD2 1-729): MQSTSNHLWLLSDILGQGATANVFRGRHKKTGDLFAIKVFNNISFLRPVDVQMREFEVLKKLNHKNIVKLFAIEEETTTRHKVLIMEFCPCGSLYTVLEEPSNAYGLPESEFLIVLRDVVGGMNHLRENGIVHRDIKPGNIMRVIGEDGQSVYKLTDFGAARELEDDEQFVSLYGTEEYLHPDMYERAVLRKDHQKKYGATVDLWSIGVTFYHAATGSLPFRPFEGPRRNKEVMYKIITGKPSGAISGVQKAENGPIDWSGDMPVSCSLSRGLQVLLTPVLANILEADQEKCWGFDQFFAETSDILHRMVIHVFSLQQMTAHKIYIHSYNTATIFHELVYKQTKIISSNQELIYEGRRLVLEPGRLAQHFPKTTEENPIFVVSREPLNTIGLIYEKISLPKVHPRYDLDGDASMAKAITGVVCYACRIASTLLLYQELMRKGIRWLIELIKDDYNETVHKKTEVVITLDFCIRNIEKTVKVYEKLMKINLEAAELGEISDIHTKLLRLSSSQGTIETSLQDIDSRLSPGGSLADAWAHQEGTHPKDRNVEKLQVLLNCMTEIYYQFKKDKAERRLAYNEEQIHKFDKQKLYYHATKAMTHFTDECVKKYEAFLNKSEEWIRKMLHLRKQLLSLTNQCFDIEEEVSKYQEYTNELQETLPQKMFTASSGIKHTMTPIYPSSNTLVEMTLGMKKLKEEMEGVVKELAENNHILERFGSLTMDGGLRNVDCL

[8] = molecular target: T3, panel of more than 300 wild-type and mutant kinases (313 kinase panel) (Homo sapiens, UniProt Q02156)
T3 sequence (Q02156 1-737): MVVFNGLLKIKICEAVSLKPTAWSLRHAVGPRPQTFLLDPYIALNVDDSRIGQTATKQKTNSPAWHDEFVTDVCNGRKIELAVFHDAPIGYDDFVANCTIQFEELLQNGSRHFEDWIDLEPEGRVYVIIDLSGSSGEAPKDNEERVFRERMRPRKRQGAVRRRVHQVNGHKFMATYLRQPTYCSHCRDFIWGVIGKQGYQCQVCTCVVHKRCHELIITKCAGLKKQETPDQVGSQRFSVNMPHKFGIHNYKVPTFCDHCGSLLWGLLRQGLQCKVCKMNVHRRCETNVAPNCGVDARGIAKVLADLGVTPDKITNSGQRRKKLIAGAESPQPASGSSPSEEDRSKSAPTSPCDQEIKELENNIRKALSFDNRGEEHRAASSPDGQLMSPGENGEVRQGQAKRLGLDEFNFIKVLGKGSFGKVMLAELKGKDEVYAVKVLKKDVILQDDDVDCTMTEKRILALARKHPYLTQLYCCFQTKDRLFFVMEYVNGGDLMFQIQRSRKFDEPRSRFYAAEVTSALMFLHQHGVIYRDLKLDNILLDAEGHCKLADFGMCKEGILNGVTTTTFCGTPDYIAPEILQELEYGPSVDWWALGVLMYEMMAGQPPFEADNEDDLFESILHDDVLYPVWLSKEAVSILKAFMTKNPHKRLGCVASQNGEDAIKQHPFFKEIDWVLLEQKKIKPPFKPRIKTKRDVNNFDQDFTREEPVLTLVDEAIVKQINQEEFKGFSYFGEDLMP

[9] = molecular target: panel of more than 300 wild-type and mutant kinases (313 kinase panel) (Homo sapiens, UniProt Q8IU85)
[10] = kinase MAP2K5, compound at 1 μM

panel of more than 300 wild-type and mutant kinases (313 kinase panel) (Homo sapiens, UniProt Q9BYP7), sequence (Q9BYP7 whole entry, change not shown): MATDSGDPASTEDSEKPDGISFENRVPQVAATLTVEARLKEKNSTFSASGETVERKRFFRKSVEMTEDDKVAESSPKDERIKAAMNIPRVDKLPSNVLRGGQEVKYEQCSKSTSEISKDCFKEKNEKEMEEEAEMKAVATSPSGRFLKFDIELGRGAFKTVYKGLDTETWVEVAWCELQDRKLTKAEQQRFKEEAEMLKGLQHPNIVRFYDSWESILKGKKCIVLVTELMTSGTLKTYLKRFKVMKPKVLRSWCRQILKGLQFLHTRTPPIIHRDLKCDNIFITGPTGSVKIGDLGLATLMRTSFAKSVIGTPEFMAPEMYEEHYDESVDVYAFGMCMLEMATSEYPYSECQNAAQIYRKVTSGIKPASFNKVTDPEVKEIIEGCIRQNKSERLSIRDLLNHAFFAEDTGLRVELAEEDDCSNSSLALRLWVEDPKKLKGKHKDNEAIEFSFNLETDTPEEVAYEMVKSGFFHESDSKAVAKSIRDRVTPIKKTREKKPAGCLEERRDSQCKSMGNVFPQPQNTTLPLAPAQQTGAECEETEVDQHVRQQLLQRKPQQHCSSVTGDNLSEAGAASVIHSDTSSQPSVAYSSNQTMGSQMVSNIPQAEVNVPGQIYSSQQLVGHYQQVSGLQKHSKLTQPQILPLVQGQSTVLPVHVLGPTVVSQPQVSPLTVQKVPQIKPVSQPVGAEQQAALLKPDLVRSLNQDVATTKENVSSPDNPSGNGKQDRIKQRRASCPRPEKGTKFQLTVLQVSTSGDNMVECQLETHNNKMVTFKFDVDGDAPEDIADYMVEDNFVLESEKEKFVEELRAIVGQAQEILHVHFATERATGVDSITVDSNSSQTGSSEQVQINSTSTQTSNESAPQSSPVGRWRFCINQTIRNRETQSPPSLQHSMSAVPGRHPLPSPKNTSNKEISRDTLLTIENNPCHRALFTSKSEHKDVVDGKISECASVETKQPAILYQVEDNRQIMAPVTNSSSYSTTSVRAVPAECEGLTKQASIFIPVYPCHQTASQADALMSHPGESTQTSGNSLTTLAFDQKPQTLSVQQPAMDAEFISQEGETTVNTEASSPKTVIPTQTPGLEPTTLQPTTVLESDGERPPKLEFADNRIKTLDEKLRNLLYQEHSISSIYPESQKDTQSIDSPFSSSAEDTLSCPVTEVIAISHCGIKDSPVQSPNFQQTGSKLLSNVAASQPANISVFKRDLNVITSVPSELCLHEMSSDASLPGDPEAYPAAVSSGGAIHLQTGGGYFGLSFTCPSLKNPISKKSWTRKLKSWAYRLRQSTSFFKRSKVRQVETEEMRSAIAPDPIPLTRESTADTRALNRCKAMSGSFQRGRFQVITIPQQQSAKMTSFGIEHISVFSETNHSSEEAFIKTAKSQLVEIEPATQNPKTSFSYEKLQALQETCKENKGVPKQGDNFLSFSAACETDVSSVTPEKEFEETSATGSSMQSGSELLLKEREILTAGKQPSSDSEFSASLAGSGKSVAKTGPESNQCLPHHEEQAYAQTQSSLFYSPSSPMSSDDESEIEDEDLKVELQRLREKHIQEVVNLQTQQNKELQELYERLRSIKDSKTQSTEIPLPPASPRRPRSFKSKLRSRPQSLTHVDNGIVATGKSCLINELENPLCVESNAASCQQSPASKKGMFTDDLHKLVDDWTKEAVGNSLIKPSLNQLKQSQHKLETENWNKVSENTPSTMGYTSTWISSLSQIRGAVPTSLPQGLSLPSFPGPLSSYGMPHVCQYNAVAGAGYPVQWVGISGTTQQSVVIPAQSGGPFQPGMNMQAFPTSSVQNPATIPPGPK
panel of more than 300 wild-type and mutant kinases (313 kinase panel) (Homo sapiens, UniProt Q02763), sequence (Q02763 23-1124, change not shown): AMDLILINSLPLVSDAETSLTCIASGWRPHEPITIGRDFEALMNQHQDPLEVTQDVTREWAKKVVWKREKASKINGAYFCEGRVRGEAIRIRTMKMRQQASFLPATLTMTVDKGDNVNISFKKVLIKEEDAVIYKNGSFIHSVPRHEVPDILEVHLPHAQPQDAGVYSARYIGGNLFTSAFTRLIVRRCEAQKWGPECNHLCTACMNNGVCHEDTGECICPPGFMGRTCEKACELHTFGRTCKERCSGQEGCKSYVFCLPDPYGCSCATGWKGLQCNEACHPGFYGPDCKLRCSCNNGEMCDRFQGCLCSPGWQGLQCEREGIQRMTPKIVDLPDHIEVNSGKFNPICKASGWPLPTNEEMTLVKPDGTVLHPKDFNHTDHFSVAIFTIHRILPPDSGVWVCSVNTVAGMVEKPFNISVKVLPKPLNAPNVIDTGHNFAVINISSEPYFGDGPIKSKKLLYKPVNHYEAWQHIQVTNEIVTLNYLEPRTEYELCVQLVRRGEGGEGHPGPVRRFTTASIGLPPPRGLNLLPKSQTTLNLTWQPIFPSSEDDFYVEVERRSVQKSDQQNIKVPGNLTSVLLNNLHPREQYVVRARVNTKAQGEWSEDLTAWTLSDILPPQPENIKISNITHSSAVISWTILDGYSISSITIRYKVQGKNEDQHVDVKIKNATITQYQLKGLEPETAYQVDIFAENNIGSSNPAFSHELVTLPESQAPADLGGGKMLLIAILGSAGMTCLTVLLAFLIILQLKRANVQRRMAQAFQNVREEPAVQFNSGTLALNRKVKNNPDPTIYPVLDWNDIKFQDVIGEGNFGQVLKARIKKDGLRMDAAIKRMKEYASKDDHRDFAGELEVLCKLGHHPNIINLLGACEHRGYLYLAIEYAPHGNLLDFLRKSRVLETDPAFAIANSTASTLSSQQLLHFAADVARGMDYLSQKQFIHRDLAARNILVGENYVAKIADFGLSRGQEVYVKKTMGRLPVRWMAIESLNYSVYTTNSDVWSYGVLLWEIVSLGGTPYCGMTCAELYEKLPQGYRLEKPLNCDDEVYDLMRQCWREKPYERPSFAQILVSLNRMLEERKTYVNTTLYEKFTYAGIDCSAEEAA
panel of more than 300 wild-type and mutant kinases (313 kinase panel) (Homo sapiens, UniProt P07949), sequence (P07949 29-1114, change not shown): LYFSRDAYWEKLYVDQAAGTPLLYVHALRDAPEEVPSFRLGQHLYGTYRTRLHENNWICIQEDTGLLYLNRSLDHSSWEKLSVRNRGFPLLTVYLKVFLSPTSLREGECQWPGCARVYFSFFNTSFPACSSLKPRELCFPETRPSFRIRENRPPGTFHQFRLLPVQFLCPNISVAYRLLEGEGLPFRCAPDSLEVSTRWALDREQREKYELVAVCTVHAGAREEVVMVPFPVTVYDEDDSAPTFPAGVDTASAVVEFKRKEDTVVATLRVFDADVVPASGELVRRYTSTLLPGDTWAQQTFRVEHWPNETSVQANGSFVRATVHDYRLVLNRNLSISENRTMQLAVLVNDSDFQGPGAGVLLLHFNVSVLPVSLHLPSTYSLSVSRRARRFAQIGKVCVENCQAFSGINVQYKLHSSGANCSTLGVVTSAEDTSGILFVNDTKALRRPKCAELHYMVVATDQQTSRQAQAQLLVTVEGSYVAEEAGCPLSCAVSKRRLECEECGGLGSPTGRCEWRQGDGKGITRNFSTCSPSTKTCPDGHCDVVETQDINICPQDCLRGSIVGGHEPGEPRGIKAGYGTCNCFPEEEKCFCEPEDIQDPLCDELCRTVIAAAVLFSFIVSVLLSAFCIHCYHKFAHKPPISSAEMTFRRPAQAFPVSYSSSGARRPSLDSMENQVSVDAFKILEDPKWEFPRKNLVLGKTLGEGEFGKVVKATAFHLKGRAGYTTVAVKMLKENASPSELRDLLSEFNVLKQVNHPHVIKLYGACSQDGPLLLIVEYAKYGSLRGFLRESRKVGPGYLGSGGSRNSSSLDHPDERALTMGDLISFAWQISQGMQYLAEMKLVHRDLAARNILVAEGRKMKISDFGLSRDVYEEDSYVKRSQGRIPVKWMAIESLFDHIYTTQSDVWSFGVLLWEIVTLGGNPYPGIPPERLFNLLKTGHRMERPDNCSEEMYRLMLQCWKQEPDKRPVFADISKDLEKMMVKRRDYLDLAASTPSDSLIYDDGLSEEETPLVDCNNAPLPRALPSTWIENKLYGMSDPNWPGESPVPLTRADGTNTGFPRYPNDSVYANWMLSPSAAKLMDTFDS

SMILES	%-inhibition of MAP2K5 [1, 10] [%]	%-inhibition of TIE2 ([2]; kinase TIE2, 1 μM) [%]	%-inhibition of IRAK1 ([3]; kinase IRAK1, compound at 1 μM) [%]	%-inhibition of p70S6K ([4]; kinase p70S6K, 1 μM) [%]	%-inhibition of WNK3 ([5]; kinase WNK3, compound at 1 μM) [%]	%-inhibition of RET ([6]; kinase RET, 1 μM) [%]	%-inhibition of TBK1 ([7]; kinase TBK1, 1 μM) [%]	%-inhibition of PKCε ([8]; kinase PKCε, 1 μM) [%]	%-inhibition, CaMK1δ ([9]; kinase CaMK1δ, 1 μM compound) [%]	%-inhibition of MAP2K5 ([1]; 1 µM) [%]	%-inhibition of TIE2 ([2]; 1 µM) [%]	%-inhibition of IRAK1 ([3]; 1 µM) [%]	%-inhibition of p70S6K ([4]; 1 µM) [%]	%-inhibition of WNK3 ([5]; 1 µM) [%]	%-inhibition, CaMK1δ ([9]; 1 µM) [%]	%-inhibition of RET ([6]; 1 µM) [%]	%-inhibition of TBK1 ([7]; 1 µM) [%]	%-inhibition of PKCε ([8]; 1 µM) [%]
COc1cc(Nc2c(C#N)cnc3cc(OCCCN4CCN(C)CC4)c(OC)cc23)c(Cl)cc1Cl [bosutinib]	63	22	12	43	13	95	32	-0.711										
COc1cc2nccc(Oc3ccc(NC(=O)C4(C(=O)Nc5ccc(F)cc5)CC4)cc3)c2cc1OC [cabozantinib]	17	90	14	8	20		-0.506	3	-1.37									
C[C@@H](Oc1cc(-c2cnn(C3CCNCC3)c2)cnc1N)c1c(Cl)ccc(F)c1Cl [crizotinib]	24			40	-8		1.42	-7	-4									
CC(C)(C)c1nc(-c2cccc(NS(=O)(=O)c3c(F)cccc3F)c2F)c(-c2ccnc(N)n2)s1 [dabrafenib]	70	81	-48		1.34	49	-1.15	5										
Cc1nc(Nc2ncc(C(=O)Nc3c(C)cccc3Cl)s2)cc(N2CCN(CCO)CC2)n1 [dasatinib]			2.75	11														
C#Cc1cccc(Nc2ncnc3cc(OCCOC)c(OCCOC)cc23)c1 [erlotinib]										92	9	-1.65	10	0.315	-3.68	70	26	0.598
CS(=O)(=O)CCNCc1ccc(-c2ccc3ncnc(Nc4ccc(OCc5cccc(F)c5)c(Cl)c4)c3c2)o1 [lapatinib]	1.63	2.14	3	8			-14		-4							-0.304		
Cc1ccc(Nc2nccc(N(C)c3ccc4c(C)n(C)nc4c3)n2)cc1S(N)(=O)=O [pazopanib]	13	26	8	17	8		-2.68	-5.38	-1.49									
Cc1ccc(C(=O)Nc2ccc(CN3CCN(C)CC3)c(C(F)(F)F)c2)cc1C#Cc1cnc2cccnn12 [ponatinib]	61	101	79	101	0.73	102		12										
N#CC[C@H](C1CCCC1)n1cc(-c2ncnc3[nH]ccc23)cn1 [ruxolitinib]	7	3	50		-8		21	-2.79					20					
CCN(CC)CCNC(=O)c1c(C)[nH]c(/C=C2\C(=O)Nc3ccc(F)cc32)c1C [sunitinib]			90	88			56											
COc1cc2c(Nc3ccc(Br)cc3F)ncnc2cc1OCC1CCN(C)CC1 [vandetanib]	43	85	46		-7		0.911	-4	-3									
